Measured values taken from ChEMBL document CHEMBL1201862, “PubChem BioAssay data set” (2004).
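Briefly, cells in 96-well plates were exposed to five compound concentrations for 48 h, and endpoints were estimated by linear interpolation. GI50 marks 50% less growth.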 Active and inactive are the calls of the source. Cut-off read from the data, not from the text of the source: active = GI50 up to about 1.1 µM and inactive = higher.

Key:
Test in all cases: NCI anticancer screen, dose series, 48 h
NCI-H23 = system: NCI-H23
T47D = system: T47D
SNB-75 = system: SNB-75
TK-10 = system: TK-10
CAKI-1 = system: CAKI-1
NCI-H226 = system: NCI-H226
SNB-19 = system: SNB-19
OVCAR-8 = system: OVCAR-8
RPMI-8226 = system: RPMI-8226
K562 = system: K562
HCT-116 = system: HCT-116
RXF 393 = system: RXF 393
A549 = system: A549
786-0 = system: 786-0
OVCAR-3 = system: OVCAR-3
COLO 205 = system: COLO 205
HL-60 = system: HL-60
SF-295 = system: SF-295
MDA-N = system: MDA-N
UACC-257 = system: UACC-257
KM12 = system: KM12
SK-OV-3 = system: SK-OV-3
CCRF-CEM = system: CCRF-CEM
SF-268 = system: SF-268
SK-MEL-28 = system: SK-MEL-28
HOP-62 = system: HOP-62
UACC-62 = system: UACC-62
MOLT-4 = system: MOLT-4
MDA-MB-231 = system: MDA-MB-231
BT-549 = system: BT-549
UO-31 = system: UO-31
PC-3 = system: PC-3
ACHN = system: ACHN
HOP-92 = system: HOP-92
OVCAR-4 = system: OVCAR-4
MDA-MB-435 = system: MDA-MB-435
HCT-15 = system: HCT-15
SW-620 = system: SW-620
SR = system: SR
M14 = system: M14
Malme-3M = system: Malme-3M
DU-145 = system: DU-145
SN12C = system: SN12C
NCI/ADR-RES = system: NCI/ADR-RES
EKVX = system: EKVX
OVCAR-5 = system: OVCAR-5
SK-MEL-5 = system: SK-MEL-5
LOX IMVI = system: LOX IMVI
IGROV-1 = system: IGROV-1
NCI-H522 = system: NCI-H522
Hs-578T = system: Hs-578T
HT-29 = system: HT-29
SK-MEL-2 = system: SK-MEL-2
U-251 = system: U-251
NCI-H460 = system: NCI-H460
A498 = system: A498

Measured: GI50

Oc1ccc2ccccc2c1/N=N/c1ccc(Cl)cc1
inactive: NCI-H23 > 100 µM | T47D > 100 µM | SNB-75 > 100 µM | TK-10 > 100 µM | CAKI-1 > 100 µM | NCI-H226 > 100 µM | SNB-19 > 100 µM | OVCAR-8 > 100 µM | RPMI-8226 > 100 µM | K562 > 100 µM | HCT-116 51.9 µM | RXF 393 > 100 µM | A549 > 100 µM | 786-0 34.6 µM | OVCAR-3 > 100 µM | COLO 205 53 µM | HL-60 > 100 µM | SF-295 > 100 µM | MDA-N > 100 µM | UACC-257 > 100 µM | KM12 > 100 µM | SK-OV-3 > 100 µM | CCRF-CEM > 100 µM | SF-268 > 100 µM | SK-MEL-28 > 100 µM | HOP-62 > 100 µM | UACC-62 > 100 µM | MOLT-4 > 100 µM | MDA-MB-231 26.9 µM | BT-549 > 100 µM | UO-31 > 100 µM | PC-3 > 100 µM | ACHN > 100 µM | HOP-92 > 100 µM | OVCAR-4 > 100 µM | MDA-MB-435 > 100 µM | SW-620 > 100 µM | SR 39.5 µM | M14 > 100 µM | Malme-3M > 100 µM | DU-145 > 100 µM | SN12C > 100 µM | NCI/ADR-RES > 100 µM | EKVX > 100 µM | OVCAR-5 > 100 µM | SK-MEL-5 > 100 µM | LOX IMVI 24.8 µM | IGROV-1 > 100 µM | NCI-H522 > 100 µM | Hs-578T > 100 µM | HT-29 > 100 µM | SK-MEL-2 > 100 µM | U-251 > 100 µM
> 100 µM: HCT-15

CC(CC(N)C(=O)O)C(=O)O (stereo unspecified)
inactive: NCI-H23 > 100 µM | T47D > 100 µM | TK-10 > 100 µM | CAKI-1 > 100 µM | NCI-H226 > 100 µM | SNB-19 > 100 µM | OVCAR-8 > 100 µM | K562 > 100 µM | HCT-116 > 100 µM | RXF 393 > 100 µM | A549 > 100 µM | 786-0 > 100 µM | OVCAR-3 > 100 µM | HL-60 > 100 µM | SF-295 > 100 µM | MDA-N > 100 µM | UACC-257 > 100 µM | KM12 > 100 µM | CCRF-CEM > 100 µM | SF-268 > 100 µM | SK-MEL-28 > 100 µM | HOP-62 > 100 µM | UACC-62 > 100 µM | MOLT-4 > 100 µM | MDA-MB-231 > 100 µM | BT-549 > 100 µM | UO-31 > 100 µM | PC-3 > 100 µM | ACHN > 100 µM | HOP-92 > 100 µM | OVCAR-4 > 100 µM | MDA-MB-435 > 100 µM | NCI-H460 > 100 µM | SW-620 > 100 µM | SR > 100 µM | M14 > 100 µM | Malme-3M > 100 µM | DU-145 > 100 µM | SN12C > 100 µM | NCI/ADR-RES > 100 µM | EKVX > 100 µM | OVCAR-5 > 100 µM | SK-MEL-5 > 100 µM | LOX IMVI > 100 µM | A498 > 100 µM | IGROV-1 > 100 µM | NCI-H522 > 100 µM | Hs-578T > 100 µM | HT-29 > 100 µM | SK-MEL-2 > 100 µM | U-251 > 100 µM
> 100 µM: HCT-15
